Tests used:
[1] = Cytotoxicity assay (MTS, 3 days), L929; assay type: cell-based; settings: L929 fibroblast cells; mouse fibroblast cell line
Method: To each well of 96-well plate, 10,000 cells of LCC6, LCC6MDR or L929 were incubated with different concentrations of FM04 (0, 0.4, 1.2, 3.7, 11, 33 and 100 μM). The final volume in each well of 96-well plate was 100 μL and the plate was incubated for 3 days at 37 °C. The cell viability was determined using MTS assay as reported previously.

CYP2C8 = biological target: T1, CYP2C8 (Homo sapiens, UniProt P10632); test: PTX metabolism in human liver microsomes: 6α-OHP formation; assay type: in vitro ADME; settings: HLM
T1 construct: tissue Research Institute for Liver Diseases (Shanghai); host or cells: 50-donor pooled human liver microsomes
T1 sequence (P10632 1-490): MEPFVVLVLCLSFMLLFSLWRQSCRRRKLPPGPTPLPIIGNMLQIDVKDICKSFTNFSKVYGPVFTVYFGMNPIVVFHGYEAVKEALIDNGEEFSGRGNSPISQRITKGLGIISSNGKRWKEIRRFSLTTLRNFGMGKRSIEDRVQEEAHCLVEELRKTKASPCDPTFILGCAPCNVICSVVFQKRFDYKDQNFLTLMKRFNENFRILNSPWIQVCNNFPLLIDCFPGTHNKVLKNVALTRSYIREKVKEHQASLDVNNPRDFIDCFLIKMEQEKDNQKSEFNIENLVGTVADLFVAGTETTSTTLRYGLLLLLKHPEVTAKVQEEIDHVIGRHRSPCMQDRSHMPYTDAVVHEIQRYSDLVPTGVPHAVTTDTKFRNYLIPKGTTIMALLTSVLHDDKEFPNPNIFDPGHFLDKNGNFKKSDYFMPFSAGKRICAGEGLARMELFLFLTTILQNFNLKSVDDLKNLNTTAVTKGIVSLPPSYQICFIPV
Method: Figure 7 Mechanistic study of FM04 to increase the oral PTX absorption. (A) transepithelial permeability of PTX in Caco-2 transwell assay. When confluent monolayer of Caco2 cells was formed on the transwell, the permeability of PTX (10 μM) was studied with or without FM04 (10 μM). For apical to basolateral transport (A to B), compound was added at the apical side (donor) and samples of the medium collected at the basal side (receiver) at 0, 20, 40, 60, 80, 100 and 120 min and vice versa for basal to apical transport (B to A). The PTX level was determined using UPLC-MS/MS. The relative % of PTX was presented as mean ± standard error of mean. N = 2–3 independent experiments. Impact of FM04 on PTX metabolism. […] After incubation, the levels of PTX, metabolites 6α-hydroxpaclitaxel (6α-OHP) and p3′-hydroxpaclitaxel (p3-OHP) were determined by HPLC-MS/MS. (B) changes in PTX. (C) changes in 6α-OHP. (D) changes in p3-OHP. […]
Drug solutions of PTX and FM04 were prepared in methanol. […] PTX and PTX metabolites were immediately analyzed by UPLC-MS/MS on the same day.
[^13C6]-paclitaxel (CAS: 379688-61-6) was the internal standard (IS) and purchased from Alsachim. Fifteen microliters of 10 μg/mL internal standard (IS) was added to all samples and calibration standards for quantification. […] PTX and both metabolites were semi-quantified base on the peak area ratio of the analyte/internal standard.

decrease of the level of 6α-OHP (CYP2C8; FM04 10 μM): 44%
decrease of the level of 6α-OHP (CYP2C8; FM04 20 μM): 48%
SMILES: O=c1cc(-c2ccc(OCCOCCNCc3ccccc3)cc2)oc2ccccc12 [FM04, 2-(4-(2-(2-(benzylamino)ethoxy)ethoxy)phenyl)-4H-chromen-4-one]
IC50 at 3 days [1]: 33 µM
